Columns and labels:
Format in all cases: biochemical
[1] = Carboxyfluorescein dye leakage from LUVs, Aβ42; conditions: Aβ42 50 μM
Description: Carboxyfluorescein dye loaded Large Unilamellar Vesicles (LUVs) preparation LUVs were prepared using a mixture of DMPC, Cholesterol, and GM1 (68:30:2, molar). Lipids were dissolved in chloroform and methanol (2:1, 2 mM) in a glass vessel, and solvents were evaporated using nitrogen gas to make lipid films.3 The lipid films were hydrated with 500 µL of carboxyfluorescein (CF) solution (200 µM) in 50mM HEPES buffer of pH 7.4. Then, the solution was vortexed vigorously for 30 min for emulsification. Then the glass vial was dipped into the liquid nitrogen for instant cooling, and after 5 min the frozen solution was dipped into a water bath at 50-60 °C for freeze-thawing.4This step was repeated five times. The excess dye was removed by ultracentrifugation at 20000 rpm, the supernatant […]
Carboxyfluorescein dye loaded Large Unilamellar Vesicles (LUVs) Leakage Study For leakage study, peptide and lipids were taken in 1:20 molar ratios, and the dye release was monitored by fluorescence emission. Emission was measured at 516 nm, and excitation at 485 nm, 3 nm of bandwidth on a Fluoromax-4, Horiba instrument. The complete dye release from the vesicle was obtained using Triton X-100, and the final fluorescence was measured. The % leakage was calculated as, % 𝐿𝑒𝑎𝑘𝑎𝑔𝑒 = (𝑂𝑏𝑠𝑒𝑟𝑣𝑒𝑑 𝑓𝑙𝑢𝑜𝑟𝑒𝑠𝑐𝑒𝑛𝑐𝑒 –𝑖𝑛𝑖𝑡𝑖𝑎𝑙 𝑓𝑙𝑢𝑜𝑟𝑒𝑠𝑐𝑒𝑛𝑐𝑒) × 100 % … ..(4) (𝑇𝑜𝑡𝑎𝑙 𝑓𝑙𝑢𝑜𝑟𝑒𝑠𝑐𝑒𝑛𝑐𝑒 ‒ 𝑖𝑛𝑖𝑡𝑖𝑎𝑙 𝑓𝑙𝑢𝑜𝑟𝑒𝑠𝑐𝑒𝑛𝑐𝑒) […]

Aβ42 [2] = assay: TEM of early events of Aβ42 aggregation; conditions: absence of SP1; 1, 5, 10, 20 h
Description: Transmission Electron Microscopy (TEM)
10μL aliquot from the stock peptide solution after incubation of 10 days (7 days for inhibition study) was added over the carbon-coated copper grid. Then 2% uranyl acetate solution (10μL) was added onto it and allowed to float for 1 min. The excess solution was removed using a blotting paper. The sample was dried at room temperature and kept in desiccators before taking TEM analysis on JEOL (Model: JEM 2100)

Aβ42 [3] = assay: DLS of Aβ42 aggregates; conditions: untreated Aβ42 50 μM
Description: Dynamic light scattering (DLS) measurements
DLS1,2 measurements were performed with the different Aβ42peptide samples (oligomers and mature fibrils) on a Malvern nano zetasizer (Malvern, UK) using a laser source with λ=633 nm and a detector at a scattering angle of θ = 173 degrees.
for the ThT assay, in the absence of ThT dye, for 1h, 5h, 10h and 20h min to generate oligomers and mature fibrils, respectively and the hydrodynamic diameter of them was immediately examined by DLS.
Prior to the analysis, samples were filtered through 0.45 µm PVDF membrane. The samples were placed in a disposable cuvette and held at the corresponding temperature during the analysis. For each sample, the analyses were recorded three times with 11 sub-runs using the multimodal mode. The Z-average diameter was calculated from the correlation function using Malvern technology software. g.

Substance: Aβ42: Aβ42 peptide
- dye leakage from LUVs ([1]; absence of SP1, 5 h aged): ~55%
- dye leakage from LUVs ([1]; absence of SP1, 10 h aged): ~23%
- morphology of Aβ42 aggregates (TEM) (Aβ42 [2]): exhibited smaller aggregates at 1 h or 5 h
- hydrodynamic diameter (Aβ42 [3]; 1 h): ~8 nm
- hydrodynamic diameter (Aβ42 [3]; 10 h): ~825 nm
- hydrodynamic diameter (Aβ42 [3]; 20 h): ~940 nm

Reference: paper PMC8179358, “An explicitly designed paratope of amyloid-β prevents neuronal apoptosis in vitro and hippocampal damage in rat brain” (Chemical Science, 2020)
